Among the data in patent US11649245B2, “Cyclopropylamine compound as LSD1 inhibitor and use thereof” (HELIOEAST PHARMACEUTICAL CO., LTD., priority 2018, dated 2023) are IC50 values, retold here.

Structures are written as SMILES. Where a name gives a salt, the structure may show the parent alone.

This assay deals with human LSD1 (Homo sapiens, UniProt O60341). Briefly: In vitro enzyme activity screening against LSD1 (HRP/Amplex Red fluorescence coupling enzyme method). The class given is biochemical. The conditions noted are these: human LSD1, histone H3K4me peptide substrate 20 μM. Here is the method:
The purpose of this test was to detect the in vitro inhibitory activity of the compounds against LSD1. The enzyme used in this test was human LSD1, the standard substrate was histone H3K4me peptide (20 μM), the fluorescence coupling enzyme method was used to determine the activity of the compound by combining horseradish peroxidase (HRP) and fluorescent reagent Amplex Red to detect the H2O2 generation as a result of the reaction of LSD1. Compounds were tested in 10-dose IC50 mode with a 3-fold serial dilution starting at 10 μM. The enzyme and […] to start the reaction. Fluorescence detector: Envision, excitation wavelength: Ex/Em=530/590 […]

For `O=C(O)c1ccc(CN2CCC3(CC2)CC(N[C@@H]2C[C@H]2c2ccccc2)CO3)cc1` (stereo partly shown) [Hydrochloride of the compound 6], the IC50 was determined as 329 nM.
